# Legend:
# [1] = molecular target: T1, MiGSTU (Mangifera indica glutathione S-transferase Tau class) (Mangifera indica, UniProt A0A1P8NWC2); test: steady-state enzyme kinetics of the purified enzyme; type: biochemical; details: read-out: CDNB / Km
# T1 sequence (A0A1P8NWC2 1-229): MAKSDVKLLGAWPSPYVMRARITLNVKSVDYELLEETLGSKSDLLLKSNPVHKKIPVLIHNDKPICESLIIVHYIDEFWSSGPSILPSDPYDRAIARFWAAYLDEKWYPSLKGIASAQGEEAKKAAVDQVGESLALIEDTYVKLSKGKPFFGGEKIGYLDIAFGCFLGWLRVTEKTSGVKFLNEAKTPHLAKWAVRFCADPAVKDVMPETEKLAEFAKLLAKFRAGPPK
# [2] = molecular target: Mangifera indica glutathione S-transferase Tau class (MiGSTU) (mango (Mangifera indica)); test: SEC
Compound,Km [1],stoichiometry N [2]
O=[N+]([O-])c1ccc(Cl)c([N+](=O)[O-])c1 [CDNB],792 µM,
Mangifera indica glutathione S-transferase Tau class (MiGSTU) (enzyme),,2

# Reference: publication PMC5346462 (Biochimie, 2017)
